Legend:
Conditions in all cases: exposure time: 72 h
E34 [1] = patient-derived glioblastoma stem cells of proneural subtype; assay: phenotypic distance (Euclidean, principal components) from DMSO controls (arbitrary units); higher = stronger morphological change
E13 [2] = patient-derived glioblastoma stem cells of classical subtype; assay: as above
E31 [3] = patient-derived glioblastoma stem cells of proneural subtype; assay: as above
FT3469 [4] = normal neural stem cell line; assay: as above
E28 [5] = patient-derived glioblastoma stem cells of classical subtype; assay: as above
E57 [6] = patient-derived glioblastoma stem cells of mesenchymal subtype; assay: as above
E21 [7] = patient-derived glioblastoma stem cells of mesenchymal subtype; assay: as above
E34 [8] = assay: surviving fraction (nuclei count normalised to DMSO); higher = more cells surviving (less toxic)
E13 [9] = assay: as above
E31 [10] = assay: as above
FT3469 [11] = assay: as above
E28 [12] = assay: as above
E57 [13] = assay: as above
E21 [14] = assay: as above
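Throughout, for phenotypic distance (Euclidean, principal components) from DMSO controls: cell Painting imaging in 384-well plates, CellProfiler features reduced to at least 20 principal components, Euclidean distance versus same-plate DMSO vehicle wells (0.1% v/v), median over six images per well.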
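Throughout, for surviving fraction (nuclei count normalised to DMSO): nuclei counted by high-content imaging of Hoechst-stained cells in laminin-coated 384-well plates, relative to 0.1% DMSO vehicle wells, with staurosporine as cell-death control.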

Q: What does the source list for C[C@@H](O)[C@H]1C(=O)N2C(C(=O)O)=C(S[C@@H]3CN[C@H](C(=O)N(C)C)C3)[C@H](C)[C@H]12 [Meropenem]?
A: phenotypic distance (E34 [1]; 4.11523 nM): 0.76; phenotypic distance (E34 [1]; 12.34567901 nM): 0.538; phenotypic distance (E34 [1]; 37.037 nM): 0.692; phenotypic distance (E34 [1]; 111.1111111 nM): 0.922; phenotypic distance (E34 [1]; 333.333 nM): 0.78; phenotypic distance (E34 [1]; 1000 nM): 0.612; phenotypic distance (E34 [1]; 3000 nM): 0.538; phenotypic distance (E13 [2]; 4.11523 nM): 0.447; phenotypic distance (E13 [2]; 12.34567901 nM): 0.391; phenotypic distance (E13 [2]; 37.037 nM): 0.465; phenotypic distance (E13 [2]; 111.1111111 nM): 0.343; phenotypic distance (E13 [2]; 333.333 nM): 0.428; phenotypic distance (E13 [2]; 1000 nM): 1.47; phenotypic distance (E13 [2]; 3000 nM): 0.693; phenotypic distance (E31 [3]; 4.11523 nM): 0.705; phenotypic distance (E31 [3]; 12.34567901 nM): 0.703; phenotypic distance (E31 [3]; 37.037 nM): 0.741; phenotypic distance (E31 [3]; 111.1111111 nM): 0.746; phenotypic distance (E31 [3]; 333.333 nM): 0.485; phenotypic distance (E31 [3]; 1000 nM): 0.528; phenotypic distance (E31 [3]; 3000 nM): 0.487; phenotypic distance (FT3469 [4]; 4.11523 nM): 0.799; phenotypic distance (FT3469 [4]; 12.34567901 nM): 1.17; phenotypic distance (FT3469 [4]; 37.037 nM): 0.764; phenotypic distance (FT3469 [4]; 111.1111111 nM): 1.09; phenotypic distance (FT3469 [4]; 333.333 nM): 0.633; phenotypic distance (FT3469 [4]; 1000 nM): 0.854; phenotypic distance (FT3469 [4]; 3000 nM): 0.676; phenotypic distance (E28 [5]; 4.11523 nM): 0.51; phenotypic distance (E28 [5]; 12.34567901 nM): 0.969; phenotypic distance (E28 [5]; 37.037 nM): 0.452; phenotypic distance (E28 [5]; 111.1111111 nM): 0.706; phenotypic distance (E28 [5]; 333.333 nM): 0.645; phenotypic distance (E28 [5]; 1000 nM): 0.83; phenotypic distance (E28 [5]; 3000 nM): 0.601; phenotypic distance (E57 [6]; 4.11523 nM): 0.603; phenotypic distance (E57 [6]; 12.34567901 nM): 0.59; phenotypic distance (E57 [6]; 37.037 nM): 0.529; phenotypic distance (E57 [6]; 111.1111111 nM): 0.751; phenotypic distance (E57 [6]; 333.333 nM): 0.536; phenotypic distance (E57 [6]; 1000 nM): 0.871; phenotypic distance (E57 [6]; 3000 nM): 0.419; phenotypic distance (E21 [7]; 4.11523 nM): 1.01; phenotypic distance (E21 [7]; 12.34567901 nM): 1; phenotypic distance (E21 [7]; 37.037 nM): 0.846; phenotypic distance (E21 [7]; 111.1111111 nM): 3.57; phenotypic distance (E21 [7]; 333.333 nM): 0.377; phenotypic distance (E21 [7]; 1000 nM): 0.695; phenotypic distance (E21 [7]; 3000 nM): 0.387; surviving fraction (E34 [8]; 4.11523 nM): 1.07; surviving fraction (E34 [8]; 12.34567901 nM): 1.03; surviving fraction (E34 [8]; 37.037 nM): 1.11; surviving fraction (E34 [8]; 111.1111111 nM): 1.17; surviving fraction (E34 [8]; 333.333 nM): 1.07; surviving fraction (E34 [8]; 1000 nM): 0.937; surviving fraction (E34 [8]; 3000 nM): 1.02; surviving fraction (E13 [9]; 4.11523 nM): 0.996; surviving fraction (E13 [9]; 12.34567901 nM): 1.11; surviving fraction (E13 [9]; 37.037 nM): 0.951; surviving fraction (E13 [9]; 111.1111111 nM): 1.09; surviving fraction (E13 [9]; 333.333 nM): 1.05; surviving fraction (E13 [9]; 1000 nM): 1.31; surviving fraction (E13 [9]; 3000 nM): 1.17; surviving fraction (E31 [10]; 4.11523 nM): 1.13; surviving fraction (E31 [10]; 12.34567901 nM): 1.1; surviving fraction (E31 [10]; 37.037 nM): 1.15; surviving fraction (E31 [10]; 111.1111111 nM): 0.926; surviving fraction (E31 [10]; 333.333 nM): 1.17; surviving fraction (E31 [10]; 1000 nM): 1.01; surviving fraction (E31 [10]; 3000 nM): 1.16; surviving fraction (FT3469 [11]; 4.11523 nM): 1.24; surviving fraction (FT3469 [11]; 12.34567901 nM): 1.17; surviving fraction (FT3469 [11]; 37.037 nM): 1.17; surviving fraction (FT3469 [11]; 111.1111111 nM): 1.1; surviving fraction (FT3469 [11]; 333.333 nM): 1.28; surviving fraction (FT3469 [11]; 1000 nM): 0.993; surviving fraction (FT3469 [11]; 3000 nM): 0.866; surviving fraction (E28 [12]; 4.11523 nM): 1.11; surviving fraction (E28 [12]; 12.34567901 nM): 1.17; surviving fraction (E28 [12]; 37.037 nM): 1.12; surviving fraction (E28 [12]; 111.1111111 nM): 1.08; surviving fraction (E28 [12]; 333.333 nM): 1.29; surviving fraction (E28 [12]; 1000 nM): 1.23; surviving fraction (E28 [12]; 3000 nM): 1.03; surviving fraction (E57 [13]; 4.11523 nM): 1; surviving fraction (E57 [13]; 12.34567901 nM): 1.01; surviving fraction (E57 [13]; 37.037 nM): 1.01; surviving fraction (E57 [13]; 111.1111111 nM): 1.03; surviving fraction (E57 [13]; 333.333 nM): 1.01; surviving fraction (E57 [13]; 1000 nM): 1.06; surviving fraction (E57 [13]; 3000 nM): 0.989; surviving fraction (E21 [14]; 4.11523 nM): 1.15; surviving fraction (E21 [14]; 12.34567901 nM): 1.14; surviving fraction (E21 [14]; 37.037 nM): 1.07; surviving fraction (E21 [14]; 111.1111111 nM): 1.11; surviving fraction (E21 [14]; 333.333 nM): 1.02; surviving fraction (E21 [14]; 1000 nM): 1.16; surviving fraction (E21 [14]; 3000 nM): 1.06

Q: What does the source list for CNc1ccc2oc(C[C@H]3O[C@@]4(CC[C@H]3C)O[C@H]([C@H](C)C(=O)c3ccc[nH]3)[C@H](C)C[C@H]4C)nc2c1C(=O)O [Calcimycin]?
A: phenotypic distance (E34 [1]; 4.1 nM): 1.43; phenotypic distance (E34 [1]; 12.3 nM): 1.06; phenotypic distance (E34 [1]; 37 nM): 1.29; phenotypic distance (E34 [1]; 111.1 nM): 1.9; phenotypic distance (E34 [1]; 333.3 nM): 5.09; phenotypic distance (E34 [1]; 1000 nM): 6.74; phenotypic distance (E34 [1]; 3000 nM): 8.56; phenotypic distance (E13 [2]; 4.1 nM): 1; phenotypic distance (E13 [2]; 12.3 nM): 0.71; phenotypic distance (E13 [2]; 37 nM): 1.46; phenotypic distance (E13 [2]; 111.1 nM): 3.31; phenotypic distance (E13 [2]; 333.3 nM): 6.79; phenotypic distance (E13 [2]; 1000 nM): 7.97; phenotypic distance (E13 [2]; 3000 nM): 8.33; phenotypic distance (E31 [3]; 4.1 nM): 0.62; phenotypic distance (E31 [3]; 12.3 nM): 0.642; phenotypic distance (E31 [3]; 37 nM): 0.72; phenotypic distance (E31 [3]; 111.1 nM): 2.33; phenotypic distance (E31 [3]; 333.3 nM): 7.91; phenotypic distance (E31 [3]; 1000 nM): 11; phenotypic distance (E31 [3]; 3000 nM): 10.4; phenotypic distance (FT3469 [4]; 4.1 nM): 1.09; phenotypic distance (FT3469 [4]; 12.3 nM): 0.726; phenotypic distance (FT3469 [4]; 37 nM): 1.32; phenotypic distance (FT3469 [4]; 111.1 nM): 1.82; phenotypic distance (FT3469 [4]; 333.3 nM): 3.73; phenotypic distance (FT3469 [4]; 1000 nM): 6.31; phenotypic distance (FT3469 [4]; 3000 nM): 5.79; phenotypic distance (E28 [5]; 4.1 nM): 0.698; phenotypic distance (E28 [5]; 12.3 nM): 0.777; phenotypic distance (E28 [5]; 37 nM): 0.856; phenotypic distance (E28 [5]; 111.1 nM): 1.27; phenotypic distance (E28 [5]; 333.3 nM): 2.95; phenotypic distance (E28 [5]; 1000 nM): 5.6; phenotypic distance (E28 [5]; 3000 nM): 6.55; phenotypic distance (E57 [6]; 4.1 nM): 1.32; phenotypic distance (E57 [6]; 12.3 nM): 0.365; phenotypic distance (E57 [6]; 37 nM): 1.3; phenotypic distance (E57 [6]; 111.1 nM): 3.84; phenotypic distance (E57 [6]; 333.3 nM): 7.84; phenotypic distance (E57 [6]; 1000 nM): 9.39; phenotypic distance (E57 [6]; 3000 nM): 9.11; phenotypic distance (E21 [7]; 4.1 nM): 0.571; phenotypic distance (E21 [7]; 12.3 nM): 0.699; phenotypic distance (E21 [7]; 37 nM): 0.538; phenotypic distance (E21 [7]; 111.1 nM): 1.96; phenotypic distance (E21 [7]; 333.3 nM): 7.08; phenotypic distance (E21 [7]; 1000 nM): 8.73; phenotypic distance (E21 [7]; 3000 nM): 12.7; surviving fraction (E34 [8]; 4.1 nM): 0.804; surviving fraction (E34 [8]; 12.3 nM): 0.991; surviving fraction (E34 [8]; 37 nM): 0.946; surviving fraction (E34 [8]; 111.1 nM): 0.787; surviving fraction (E34 [8]; 333.3 nM): 0.467; surviving fraction (E34 [8]; 1000 nM): 0.381; surviving fraction (E34 [8]; 3000 nM): 0.143; surviving fraction (E13 [9]; 4.1 nM): 0.894; surviving fraction (E13 [9]; 12.3 nM): 0.814; surviving fraction (E13 [9]; 37 nM): 0.678; surviving fraction (E13 [9]; 111.1 nM): 0.576; surviving fraction (E13 [9]; 333.3 nM): 0.266; surviving fraction (E13 [9]; 1000 nM): 0.11; surviving fraction (E13 [9]; 3000 nM): 0.061; surviving fraction (E31 [10]; 4.1 nM): 0.918; surviving fraction (E31 [10]; 12.3 nM): 0.898; surviving fraction (E31 [10]; 37 nM): 1; surviving fraction (E31 [10]; 111.1 nM): 0.786; surviving fraction (E31 [10]; 333.3 nM): 0.259; surviving fraction (E31 [10]; 1000 nM): 0.00976; surviving fraction (E31 [10]; 3000 nM): 0.00976; surviving fraction (FT3469 [11]; 4.1 nM): 1.05; surviving fraction (FT3469 [11]; 12.3 nM): 0.987; surviving fraction (FT3469 [11]; 37 nM): 0.999; surviving fraction (FT3469 [11]; 111.1 nM): 0.849; surviving fraction (FT3469 [11]; 333.3 nM): 0.578; surviving fraction (FT3469 [11]; 1000 nM): 0.25; surviving fraction (FT3469 [11]; 3000 nM): 0.118; surviving fraction (E28 [12]; 4.1 nM): 1.07; surviving fraction (E28 [12]; 12.3 nM): 1.19; surviving fraction (E28 [12]; 37 nM): 0.999; surviving fraction (E28 [12]; 111.1 nM): 0.82; surviving fraction (E28 [12]; 333.3 nM): 0.391; surviving fraction (E28 [12]; 1000 nM): 0.0896; surviving fraction (E28 [12]; 3000 nM): 0.0448; surviving fraction (E57 [13]; 4.1 nM): 1.07; surviving fraction (E57 [13]; 12.3 nM): 0.989; surviving fraction (E57 [13]; 37 nM): 0.871; surviving fraction (E57 [13]; 111.1 nM): 0.561; surviving fraction (E57 [13]; 333.3 nM): 0.201; surviving fraction (E57 [13]; 1000 nM): 0.0743; surviving fraction (E57 [13]; 3000 nM): 0.0336; surviving fraction (E21 [14]; 4.1 nM): 0.98; surviving fraction (E21 [14]; 12.3 nM): 0.993; surviving fraction (E21 [14]; 37 nM): 0.951; surviving fraction (E21 [14]; 111.1 nM): 0.887; surviving fraction (E21 [14]; 333.3 nM): 0.438; surviving fraction (E21 [14]; 1000 nM): 0.0684; surviving fraction (E21 [14]; 3000 nM): 0.00892

— the supplement of paper PMC13207355
